Assay results reported in PubChem BioAssay (NCI).
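Five concentrations, 48 hours, 96-well plates. GI50 = concentration required for 50% inhibition of growth. TGI: total growth inhibition.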

Experiments:
Assay in all cases: DTP human tumour cell line panel, 48 h
BT-549 breast = system: BT-549 breast
IGROV1 ovarian = system: IGROV1 ovarian
RXF 393 renal = system: RXF 393 renal
UO-31 renal = system: UO-31 renal
OVCAR-5 ovarian = system: OVCAR-5 ovarian
SK-MEL-28 melanoma = system: SK-MEL-28 melanoma
RPMI-8226 leukemia = system: RPMI-8226 leukemia
MDA-MB-231 breast = system: MDA-MB-231 breast
TK-10 renal = system: TK-10 renal
SW-620 colon = system: SW-620 colon
NCI-H522 lung = system: NCI-H522 lung
A498 renal = system: A498 renal
CCRF-CEM leukemia = system: CCRF-CEM leukemia
MALME-3M melanoma = system: MALME-3M melanoma
HOP-92 NSCLC = system: HOP-92 NSCLC
SN12C renal = system: SN12C renal
SF-295 CNS = system: SF-295 CNS
SK-MEL-5 melanoma = system: SK-MEL-5 melanoma
SK-OV-3 ovarian = system: SK-OV-3 ovarian
HCT-116 colon = system: HCT-116 colon
OVCAR-8 ovarian = system: OVCAR-8 ovarian
OVCAR-4 ovarian = system: OVCAR-4 ovarian
U251 CNS = system: U251 CNS
NCI-H23 lung = system: NCI-H23 lung
ACHN renal = system: ACHN renal
CAKI-1 renal = system: CAKI-1 renal
COLO 205 colon = system: COLO 205 colon

Work on COc1cc(/C=C/C(=O)c2cnn(-c3cc(=O)[nH]c4ccc(Br)cc34)c2C)cc(OC)c1OC yielded a GI50 (BT-549 breast) of 2.29 µM, a TGI (BT-549 breast) of 6.28 µM and a GI50 (IGROV1 ovarian) of 2.23 µM. The TGI (IGROV1 ovarian) was 6.33 µM, the GI50 (RXF 393 renal) was 1.87 µM and the TGI (RXF 393 renal) was 3.95 µM. The GI50 (UO-31 renal) was 2.83 µM, the TGI (UO-31 renal) was 12.5 µM and the GI50 (OVCAR-5 ovarian) was 3.09 µM. The TGI (OVCAR-5 ovarian) was 10.7 µM, the GI50 (SK-MEL-28 melanoma) was 2.84 µM and the TGI (SK-MEL-28 melanoma) was 8.75 µM. For the same compound, the GI50 (RPMI-8226 leukemia) was 2.84 µM, the TGI (RPMI-8226 leukemia) was > 100 µM and the GI50 (MDA-MB-231 breast) was 3.11 µM. The TGI (MDA-MB-231 breast) was 13.7 µM, the GI50 (TK-10 renal) was 3.8 µM and the TGI (TK-10 renal) was 24.1 µM. For the same compound, the GI50 (SW-620 colon) was 3.09 µM, the TGI (SW-620 colon) was 8.61 µM and the GI50 (NCI-H522 lung) was 2.26 µM. It also gave a TGI (NCI-H522 lung) of 5.98 µM, a GI50 (A498 renal) of 28.5 µM and a TGI (A498 renal) of 51.6 µM. For the same compound, the GI50 (CCRF-CEM leukemia) was 2.88 µM, the TGI (CCRF-CEM leukemia) was > 100 µM and the GI50 (MALME-3M melanoma) was 4.66 µM. The TGI (MALME-3M melanoma) was 22.3 µM, the GI50 (HOP-92 NSCLC) was 8.2 µM and the TGI (HOP-92 NSCLC) was > 100 µM. It also gave a GI50 (SN12C renal) of 2.94 µM, a TGI (SN12C renal) of 11.6 µM and a GI50 (SF-295 CNS) of 2.4 µM. For the same compound, the TGI (SF-295 CNS) was 7.75 µM, the GI50 (SK-MEL-5 melanoma) was 3.05 µM and the TGI (SK-MEL-5 melanoma) was 10.7 µM. For the same compound, the GI50 (SK-OV-3 ovarian) was 4.34 µM, the TGI (SK-OV-3 ovarian) was > 100 µM and the GI50 (HCT-116 colon) was 3.27 µM. For the same compound, the TGI (HCT-116 colon) was 11.5 µM, the GI50 (OVCAR-8 ovarian) was 3.48 µM and the TGI (OVCAR-8 ovarian) was > 100 µM. For the same compound, the GI50 (OVCAR-4 ovarian) was 5.2 µM, the TGI (OVCAR-4 ovarian) was > 100 µM and the GI50 (U251 CNS) was 2.54 µM. For the same compound, the TGI (U251 CNS) was 7.37 µM, the GI50 (NCI-H23 lung) was 1.92 µM and the TGI (NCI-H23 lung) was 4.33 µM. The GI50 (ACHN renal) was 1.84 µM, the TGI (ACHN renal) was 4.31 µM and the GI50 (CAKI-1 renal) was 4.11 µM. It also gave a TGI (CAKI-1 renal) of 31.3 µM, a GI50 (COLO 205 colon) of 3.35 µM and a TGI (COLO 205 colon) of 10.9 µM.
